# How the values were obtained:
# [1] = target: T1, Nuclear receptor subfamily 1 group I member 2 (Homo sapiens, UniProt O75469); experiment: (§1) Activation of full length human PXR expressed in human HepG2 cells co-expressing luciferase of CYP3A4 promoter transcription assessed as increase of luciferase activity preincubated for 24 hrs followed by addition of luciferase substrate and measured by hPXR Gene reporter assay; format: ADME, cell-based
# T1 sequence (O75469 whole entry): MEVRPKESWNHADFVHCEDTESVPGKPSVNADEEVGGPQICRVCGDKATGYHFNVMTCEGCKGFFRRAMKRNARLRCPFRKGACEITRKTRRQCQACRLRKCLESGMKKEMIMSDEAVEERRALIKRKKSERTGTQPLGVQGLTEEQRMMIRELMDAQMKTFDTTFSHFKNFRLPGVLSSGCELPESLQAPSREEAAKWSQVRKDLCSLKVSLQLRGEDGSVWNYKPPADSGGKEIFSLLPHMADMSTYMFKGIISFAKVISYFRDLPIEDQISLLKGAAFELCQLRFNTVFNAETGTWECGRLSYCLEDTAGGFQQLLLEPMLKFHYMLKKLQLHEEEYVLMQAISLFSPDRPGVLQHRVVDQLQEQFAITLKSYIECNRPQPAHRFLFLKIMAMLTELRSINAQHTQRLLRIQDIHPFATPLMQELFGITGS
# [2] = target: T2, PXR (NR1I2) (Homo sapiens, UniProt O75469); experiment: as §1, with “activity at 50 uM” for “activity”, “assay relative to control” for “assay”; format: ADME, cell-based
# T2 sequence (O75469 whole entry): T1 sequence (O75469 whole entry)
# [3] = AUC (0 to t) in rat at 300 mg/kg/day measured after 1 day; format: ADME, organism-based; parameters: dose 300 mg/kg/day, time 1 day; details: in vivo
# [4] = AUC (0 to t) in mouse at 300 mg/kg/day, po measured after 1 day; format: ADME, organism-based; parameters: time 1 day, dose 300 mg/kg/day; details: in vivo
# [5] = Cmax in mouse at 2000 mg/kg/day, po measured after 1 day; format: ADME, organism-based; parameters: route oral, dose 2000 mg/kg/day, time 1 day; details: in vivo
# [6] = AUC (0 to t) in mouse at 2000 mg/kg/day, po measured after 1 day; format: ADME, organism-based; parameters: time 1 day, dose 2000 mg/kg/day; details: in vivo
# [7] = AUC (0 to t) in rat at 300 mg/kg/day measured after 10 days; format: ADME, organism-based; parameters: time 10 day, dose 300 mg/kg/day; details: in vivo
# [8] = Cmax in mouse at 2000 mg/kg/day, po measured after 10 days; format: ADME, organism-based; parameters: route oral, time 10 day, dose 2000 mg/kg/day; details: in vivo
# [9] = Cmax in rat at 300 mg/kg/day measured after 10 days; format: ADME, organism-based; parameters: time 10 day, dose 300 mg/kg/day; details: in vivo
# [10] = target: T3, Extracellular calcium-sensing receptor (Mus musculus, UniProt Q9QY96); experiment: Antagonist activity at mouse CaSR; format: functional
# T3 sequence (Q9QY96 whole entry): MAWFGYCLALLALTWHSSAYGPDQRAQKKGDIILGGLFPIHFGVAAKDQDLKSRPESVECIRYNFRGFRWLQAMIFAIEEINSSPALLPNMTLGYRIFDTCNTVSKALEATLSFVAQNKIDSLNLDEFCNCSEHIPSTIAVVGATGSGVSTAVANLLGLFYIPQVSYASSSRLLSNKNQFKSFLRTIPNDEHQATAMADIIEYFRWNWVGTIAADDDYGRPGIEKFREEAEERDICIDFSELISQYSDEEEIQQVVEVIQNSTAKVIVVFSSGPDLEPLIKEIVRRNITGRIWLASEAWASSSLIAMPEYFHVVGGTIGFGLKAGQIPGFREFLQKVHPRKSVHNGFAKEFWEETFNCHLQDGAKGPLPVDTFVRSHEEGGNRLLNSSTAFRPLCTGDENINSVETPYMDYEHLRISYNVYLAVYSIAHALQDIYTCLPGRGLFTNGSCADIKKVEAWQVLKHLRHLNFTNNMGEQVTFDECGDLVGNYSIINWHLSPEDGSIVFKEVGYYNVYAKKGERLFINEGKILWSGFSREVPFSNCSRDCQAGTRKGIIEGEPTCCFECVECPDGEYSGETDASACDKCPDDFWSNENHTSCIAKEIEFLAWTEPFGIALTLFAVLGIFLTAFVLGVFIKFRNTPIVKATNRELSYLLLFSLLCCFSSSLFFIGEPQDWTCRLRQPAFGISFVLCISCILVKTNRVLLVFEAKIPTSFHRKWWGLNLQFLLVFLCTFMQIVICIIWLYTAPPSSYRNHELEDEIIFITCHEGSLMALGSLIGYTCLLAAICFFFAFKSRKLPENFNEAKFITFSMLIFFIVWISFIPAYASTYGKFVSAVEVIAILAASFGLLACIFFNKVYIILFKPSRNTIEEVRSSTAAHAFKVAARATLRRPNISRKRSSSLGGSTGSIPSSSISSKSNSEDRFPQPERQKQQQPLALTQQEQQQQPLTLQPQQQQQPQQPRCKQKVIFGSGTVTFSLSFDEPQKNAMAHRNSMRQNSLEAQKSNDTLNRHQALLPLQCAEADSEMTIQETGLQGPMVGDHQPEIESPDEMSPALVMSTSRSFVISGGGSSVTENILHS
# [11] = Cmax in mouse at 1000 mg/kg/day, po measured after 10 days; format: ADME, organism-based; parameters: route oral, dose 1000 mg/kg/day, time 10 day; details: in vivo
# [12] = AUC (0 to t) in mouse at 1000 mg/kg/day, po measured after 1 day; format: ADME, organism-based; parameters: time 1 day, dose 1000 mg/kg/day; details: in vivo
# [13] = AUC (0 to t) in mouse at 1000 mg/kg/day, po measured after 10 days; format: ADME, organism-based; parameters: time 10 day, dose 1000 mg/kg/day; details: in vivo
# [14] = target: CYP3A4 (Homo sapiens, UniProt P08684); experiment: Induction of CYP3A4 in human hepatocytes; format: ADME, cell-based, Liver
# Chain of CYP3A4 (P08684 whole entry): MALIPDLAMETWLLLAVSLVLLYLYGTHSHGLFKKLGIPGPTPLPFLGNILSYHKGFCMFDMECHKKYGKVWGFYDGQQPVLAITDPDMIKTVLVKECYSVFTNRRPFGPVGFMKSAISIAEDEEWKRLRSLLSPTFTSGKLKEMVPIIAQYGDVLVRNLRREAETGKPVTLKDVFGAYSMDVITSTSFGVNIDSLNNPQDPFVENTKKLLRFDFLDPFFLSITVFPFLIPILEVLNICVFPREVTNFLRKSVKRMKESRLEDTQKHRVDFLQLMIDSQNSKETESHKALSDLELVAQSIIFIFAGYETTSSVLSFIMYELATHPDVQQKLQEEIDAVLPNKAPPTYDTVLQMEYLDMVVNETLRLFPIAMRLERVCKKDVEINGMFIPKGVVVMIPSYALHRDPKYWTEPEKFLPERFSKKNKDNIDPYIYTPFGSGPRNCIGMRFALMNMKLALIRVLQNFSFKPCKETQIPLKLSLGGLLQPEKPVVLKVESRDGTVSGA
# [15] = Cmax in mouse at 300 mg/kg/day, po measured after 10 days; format: ADME, organism-based; parameters: route oral, time 10 day, dose 300 mg/kg/day; details: in vivo
# [16] = Cmax in mouse at 1000 mg/kg/day, po measured after 1 day; format: ADME, organism-based; parameters: route oral, dose 1000 mg/kg/day, time 1 day; details: in vivo
# [17] = AUC (0 to t) in mouse at 2000 mg/kg/day, po measured after 10 days; format: ADME, organism-based; parameters: time 10 day, dose 2000 mg/kg/day; details: in vivo
# [18] = Cmax in rat at 300 mg/kg/day measured after 1 day; format: ADME, organism-based; parameters: dose 300 mg/kg/day, time 1 day; details: in vivo
# [19] = AUC (0 to t) in mouse at 300 mg/kg/day, po measured after 10 days; format: ADME, organism-based; parameters: time 10 day, dose 300 mg/kg/day; details: in vivo
# [20] = Cmax in mouse at 300 mg/kg/day, po measured after 1 day; format: ADME, organism-based; parameters: route oral, dose 300 mg/kg/day, time 1 day; details: in vivo
# [21] = Cmax in rat at 100 mg/kg/day measured after 10 days; format: ADME, organism-based; parameters: time 10 day, dose 100 mg/kg/day; details: in vivo
# [22] = Cmax in rat at 100 mg/kg/day measured after 1 day; format: ADME, organism-based; parameters: dose 100 mg/kg/day, time 1 day; details: in vivo
# [23] = AUC (0 to t) in rat at 100 mg/kg/day measured after 10 days; format: ADME, organism-based; parameters: time 10 day, dose 100 mg/kg/day; details: in vivo
# [24] = AUC (0 to t) in rat at 100 mg/kg/day measured after 1 day; format: ADME, organism-based; parameters: time 1 day, dose 100 mg/kg/day; details: in vivo
# [25] = target: T4, Extracellular calcium-sensing receptor (Homo sapiens, UniProt P41180); experiment: Antagonist activity at human CaSR in human HEK293 cells measured after 5 mins by FLIPR assay; format: functional, cell-based
# T4 sequence (P41180 whole entry): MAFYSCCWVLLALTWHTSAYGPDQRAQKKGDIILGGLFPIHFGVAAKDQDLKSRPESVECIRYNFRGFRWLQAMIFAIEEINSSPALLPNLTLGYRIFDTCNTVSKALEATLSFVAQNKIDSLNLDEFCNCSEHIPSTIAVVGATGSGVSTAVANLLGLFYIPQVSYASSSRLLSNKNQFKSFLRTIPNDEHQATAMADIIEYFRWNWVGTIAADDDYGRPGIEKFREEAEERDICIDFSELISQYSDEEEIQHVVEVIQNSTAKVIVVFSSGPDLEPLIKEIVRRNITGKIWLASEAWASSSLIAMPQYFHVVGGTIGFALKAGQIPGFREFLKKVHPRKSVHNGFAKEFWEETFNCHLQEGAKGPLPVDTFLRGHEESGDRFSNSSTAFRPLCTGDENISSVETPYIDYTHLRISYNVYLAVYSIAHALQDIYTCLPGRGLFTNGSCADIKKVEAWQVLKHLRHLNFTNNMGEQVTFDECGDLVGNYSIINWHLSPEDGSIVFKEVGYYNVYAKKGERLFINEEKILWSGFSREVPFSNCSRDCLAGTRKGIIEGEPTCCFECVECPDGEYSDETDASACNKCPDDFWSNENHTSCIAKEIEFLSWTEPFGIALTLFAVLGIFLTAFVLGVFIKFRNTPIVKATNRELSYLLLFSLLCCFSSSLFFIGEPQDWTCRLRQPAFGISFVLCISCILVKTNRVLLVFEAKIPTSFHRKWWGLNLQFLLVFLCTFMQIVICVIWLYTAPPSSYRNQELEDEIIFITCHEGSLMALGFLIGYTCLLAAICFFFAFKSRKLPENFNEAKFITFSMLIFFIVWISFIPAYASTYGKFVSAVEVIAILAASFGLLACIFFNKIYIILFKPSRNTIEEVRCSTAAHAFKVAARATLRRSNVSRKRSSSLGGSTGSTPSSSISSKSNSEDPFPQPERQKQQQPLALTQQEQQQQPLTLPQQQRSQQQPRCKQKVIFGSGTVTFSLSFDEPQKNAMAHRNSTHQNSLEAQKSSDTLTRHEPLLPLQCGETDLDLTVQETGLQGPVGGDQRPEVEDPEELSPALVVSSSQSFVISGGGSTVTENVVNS
structure (smiles),measurement,setting,value
Cc1ncc(-c2c(C)nc(-c3cccc(F)c3O)n(CCc3ccccc3)c2=O)s1,EC50,[1],> 10 µM
same,"Emax at 24 h, 50 µM",[2],40%
Cc1ccc(-c2nc(CCc3ccccc3)c(-c3cccc(F)c3O)nc2C)s1,EC50,[1],3.2 µM
same,"Emax at 24 h, 50 µM",[2],110%
Cc1ccc(-c2c(C)nc(-c3cccc(F)c3O)n(CCc3ccccc3)c2=O)s1,AUC(0-t) at 24 h,[3],2500 ng·h/mL
same,AUC(0-t) at 24 h,[4],2880 ng·h/mL
same,Cmax,[5],3600 ng/mL
same,AUC(0-t) at 24 h,[6],15100 ng·h/mL
same,AUC(0-t) at 240 h,[7],1800 ng·h/mL
same,Cmax,[8],480 ng/mL
same,Cmax,[9],360 ng/mL
same,EC50,[1],2.5 µM
same,IC50,[10],0.051 µM
same,Cmax,[11],680 ng/mL
same,AUC(0-t) at 24 h,[12],10800 ng·h/mL
same,AUC(0-t) at 240 h,[13],2850 ng·h/mL
same,Emax,[14],10%
same,"Emax at 24 h, 50 µM",[2],122%
same,Cmax,[15],820 ng/mL
same,Cmax,[16],2960 ng/mL
same,AUC(0-t) at 240 h,[17],1580 ng·h/mL
same,Cmax,[18],330 ng/mL
same,AUC(0-t) at 240 h,[19],1260 ng·h/mL
same,Cmax,[20],980 ng/mL
Cc1nc(-c2cccc(F)c2O)n(CCc2ccccc2)c(=O)c1-c1ccc(-c2ccccc2)s1,EC50,[1],8 µM
same,"Emax at 24 h, 50 µM",[2],60%
Cc1nc(-c2cccc(F)c2O)n(CCc2ccccc2)c(=O)c1Cc1ccccc1,EC50,[1],1 µM
same,"Emax at 24 h, 50 µM",[2],250%
Cc1nc(-c2cccc(F)c2O)n(CCc2ccccc2)c(=O)c1-c1cc(-c2ccccn2)c(C)s1,Cmax,[21],12000 ng/mL
same,EC50,[1],> 50 µM
same,Cmax,[22],8900 ng/mL
same,AUC(0-t) at 240 h,[23],41100 ng·h/mL
same,"Emax at 24 h, 50 µM",[2],9%
same,AUC(0-t) at 24 h,[24],29500 ng·h/mL
Cc1nc(-c2cccc(F)c2O)n(CCc2ccccc2)c(=O)c1-c1ccc(CO)s1,EC50,[1],13 µM
same,"Emax at 24 h, 50 µM",[2],31%
same,IC50,[25],> 10 µM
Cc1nc(-c2cccc(F)c2O)n(CCc2ccccc2)c(=O)c1-c1ccc(-c2ccccn2)s1,EC50,[1],5 µM
same,"Emax at 24 h, 50 µM",[2],36%

# From ChEMBL document CHEMBL4837255, “Overcoming the Pregnane X Receptor Liability: Rational Design to Eliminate PXR-Mediated CYP Induction” (ACS Med Chem Lett, 2021)
